Laboratory results: patent publication US4448970A, “Nargenicin derivatives” (The Upjohn Company, priority 1981, dated 1984)
Where two headings read alike, the source gives them in different places.

Tests used:
Mycobacterium avium = settings: cited from earlier work
S. lutea [1] = settings: cited from earlier work
K. pneumoniae = settings: cited from earlier work
B. fragilis = settings: cited from earlier work
C. perfringens = settings: cited from earlier work
Sarcina lutea = test: Standard agar diffusion (12.5 cm disc) test, Sarcina lutea; format: cell-based; settings: for zone of inhibition at 1000 µg/mL: Micrococcus luteus
Description: (§1) When tested on a standard agar diffusion (12.5 cm disc) test at a concentration of 1 mg/ml compound (45) gave the following zones of inhibition in mm:
(§2) The antibacterial activity of compounds (46), (47), (48), (49) and (50) on a standard agar diffusion (12.5 cm disc) test at a concentration of 1 mg/ml is shown in the following table: […]

Staphylococcus aureus = test: Standard agar diffusion (12.5 cm disc) test, Staphylococcus aureus; format: cell-based; settings: for zone of inhibition at 1000 µg/mL: Staphylococcus aureus
Description: as §1, §2

S. aureus [2] = test: Standard dipped disc agar diffusion assay, S. aureus; format: cell-based; settings: Staphylococcus aureus; 1 mg/ml, 0.5 in. disc
Source text: In vitro antibacterial testing data, as measured by standard dipped disc agar diffusion assays and Minimum Inhibitory Concentration (MIC) determinations are as follows: […]

S. lutea [3] = test: Standard dipped disc agar diffusion assay, S. lutea; format: cell-based; settings: Micrococcus luteus
Description: In vitro antibacterial testing data, as measured by standard dipped disc agar diffusion assays and Minimum Inhibitory Concentration (MIC) determinations are as follows:
A 0.5 inch disc dipped into a methanol solution of chloride (6b) at a concentration of 1 mg/ml gave a zone of inhibition of 30 mm when spotted on an agar tray seeded with S. lutea.

S. aureus [4] = test: S. aureus SQ-Mouse CD50; format: in vivo; settings: Staphylococcus aureus, sc
[5] = read-out: Agar Diffusion zone, S. lutea

COC1CC2C=CC3C4OC2(C(C)=CC(C)C(C(C)O)OC1=O)C3C(O)C(C)C4O (single isomer, unassigned) [nodusmicin]
activity against Mycobacterium avium (Mycobacterium avium): active
activity against S. lutea (S. lutea [1]): active
activity against K. pneumoniae (K. pneumoniae): active
activity against B. fragilis (B. fragilis): active
activity against C. perfringens (C. perfringens): active

COC1CC2C=CC3C4OC2(C(C)=CC(C)C(C(C)=NO)OC1=O)C3C(O)C(C)C4OC(=O)c1ccc[nH]1 (single isomer, unassigned; isomer a) [Compound 46, 18-Deoxy-18-oximinonargenicin A1, Isomer A]
zone of inhibition at 1000 µg/mL (Sarcina lutea; read-out: Zone size, S. lutea): 37 mm
zone of inhibition at 1000 µg/mL (Staphylococcus aureus; read-out: Zone size, S. aureus): 30 mm

CON=C(C)C1OC(=O)C(OC)CC2C=CC3C4OC2(C(C)=CC1C)C3C(O)C(C)C4OC(=O)c1ccc[nH]1 (single isomer, unassigned; isomer a) [Compound 49, 18-Deoxy-18-methoximinonargenicin A1, Isomer A]
zone of inhibition at 1000 µg/mL (Sarcina lutea; 1 mg/ml, 12.5 cm disc, table 6, read-out: Zone size, S. lutea): 35 mm
zone of inhibition at 1000 µg/mL (Staphylococcus aureus; 1 mg/ml, 12.5 cm disc, table 6, read-out: Zone size, S. aureus): 30 mm

COC1CC2C=CC3C4OC2(C(C)=CC(C)C(C(C)=NO)OC1=O)C3C(O)C(C)C4OC(=O)c1ccc[nH]1 (single isomer, unassigned; isomer b) [Compound 47, 18-Deoxy-18-oximinonargenicin A1, Isomer B]
Zone size, S. lutea (Sarcina lutea; 1 mg/ml, 12.5 cm disc, table 6): 37 mm
Zone size, S. aureus (Staphylococcus aureus; 1 mg/ml, 12.5 cm disc, table 6): 30 mm

CON=C(C)C1OC(=O)C(OC)CC2C=CC3C4OC2(C(C)=CC1C)C3C(O)C(C)C4OC(=O)c1ccc[nH]1 (single isomer, unassigned; isomer b) [Compound 50, 18-Deoxy-18-methoximinonargenicin A1, Isomer B]
Zone size, S. lutea (Sarcina lutea; 1 mg/ml, 12.5 cm disc, table 6): 35 mm
Zone size, S. aureus (Staphylococcus aureus; 1 mg/ml, 12.5 cm disc, table 6): 30 mm

COC1CC2C=CC3C4OC2(C(C)=CC(C)C(C(C)Cl)OC1=O)C3C(O)C(C)C4OC(=O)c1ccc[nH]1 (stereo not shown) [Compound 24, 18-Chloro-18-deoxynargenicin A1]
zone of inhibition at 1000 µg/mL (S. aureus [2]): 29 mm
zone of inhibition at 1000 µg/mL (S. lutea [3]; [5]): 31 mm
ED50 (S. aureus [4]): 107 mg/kg

COC1CC2C=CC3C4OC2(C(C)=CC(C)C(C(C)=O)OC1=O)C3C(O)C(C)C4OC(=O)c1ccc[nH]1 (stereo not shown) [Compound 25, 18-Deoxy-18-oxonargenicin A1]
zone of inhibition at 1000 µg/mL (S. aureus [2]): 35 mm
zone of inhibition at 1000 µg/mL (S. lutea [3]; [5]): 41 mm
ED50 (S. aureus [4]): 152 mg/kg

COC1CC2C=CC3C4OC2(C(C)=CC(C)C(C(C)N=[N+]=[N-])OC1=O)C3C(O)C(C)C4OC(=O)c1ccc[nH]1 (stereo not shown) [Compound 29, 18-Azido-18-deoxynargenicin A1]
zone of inhibition at 1000 µg/mL (S. aureus [2]): 26 mm
zone of inhibition at 1000 µg/mL (S. lutea [3]; [5]): 33 mm

CCC1OC(=O)C(OC)CC2C=CC3C4OC2(C(C)=CC1C)C3C(O)C(C)C4OC(=O)c1ccc[nH]1 (stereo not shown) [Compound 32, 18-Deoxynargenicin A1]
zone of inhibition at 1000 µg/mL (S. aureus [2]): 29 mm
zone of inhibition at 1000 µg/mL (S. lutea [3]; [5]): 32 mm
ED50 (S. aureus [4]): > 100 mg/kg

COC1CC2C=CC3C4OC2(C(C)=CC(C)C(C(C)Cl)OC1=O)C3C(O)C(C)C4O (stereo not shown) [Compound 35, 18-Chloro-18-deoxynodusmicin]
zone of inhibition at 1000 µg/mL (S. lutea [3]; 1 mg/ml, 0.5 in. disc, read-out: Agar Diffusion zone, S. lutea): 30 mm
zone of inhibition at 1000 µg/mL (S. lutea [3]; 0.5 inch disc dipped into methanol solution, 1 mg/ml, read-out: zone of inhibition, S. lutea): 30 mm

COC1CC2C=CC3C4OC2(C(C)=CC(C)C(C(C)O)OC1=O)C3C(O)C(C)C4OC(=O)c1ccc[nH]1 (stereo not shown) [Compound 45, 18-Epinargenicin A1]
zone of inhibition at 1000 µg/mL (Sarcina lutea; read-out: zones of inhibition, Sarcina lutea): 35 mm
zone of inhibition at 1000 µg/mL (Staphylococcus aureus; read-out: zones of inhibition, Staphylococcus aureus): 26 mm

COC1CC2C=CC3C4OC2(C(C)=CC(C)C(C(C)=NNC(N)=O)OC1=O)C3C(O)C(C)C4OC(=O)c1ccc[nH]1 (stereo not shown) [Compound 48, 18-Deoxy-18-semicarbazononargenicin A1]
zone of inhibition at 1000 µg/mL (Sarcina lutea; read-out: Zone size, S. lutea): 35 mm
zone of inhibition at 1000 µg/mL (Staphylococcus aureus; read-out: Zone size, S. aureus): 28 mm

COC1CC2C=CC3C4OC2(C(C)=CC(C)C(C(C)O)OC1=O)C3C(O)C(C)C4OC(=O)c1ccc[nH]1 (stereo not shown) [Nargenicin A1, nargenicin A1, reference compound]
ED50 (S. aureus [4]): 17 to 20 mg/kg
